# Results from US20020132845A1, “Compositions and methods for the prevention and treatment of tissue ischemia” (priority 2000, published 2002).
# Test system: primary neonate myocytes (cardiomyocytes)
# Test: Isolated heart cell (myocyte) preparation model of myocardial cell ischemia (Example 4)
# Assay type: cell-based, rat
# Settings: 37-111 micromolar
# Text: Two-day old rat pups are removed from their mothers and placed in a sterile container. Pups are dipped quickly into 70% alcohol, then decapitated and the body is placed in an empty sterile tissue culture dish. An incision is made starting at the neck and progressing towards the belly, cutting through the sternum. The heart is removed and placed in a tissue culture dishes containing 1×HDS. The atria are trimmed, and the remaining ventricles are placed into a separate tissue culture dish containing 1×HDS, where they are sectioned into 3-4 pieces each. Ventricles are then transferred to a sterile 250 ml glass flask and the 1×HDS is removed. Twenty milliliters of pre-warmed collagenase solution are added to the ventricles, followed by incubation at 37° C. with shaking. After 30 minutes, the collagenase solution is removed and replaced with 20 ml fresh pre-warmed collagenase. Incubation is continued for an additional 30 minutes. At the end of the incubation, any tissue chunks are allowed to settle prior to removing the collagenase (containing the isolated cardiomyocytes) from the disrupted tissue pieces. The isolated myocytes are added to a 50 ml Falcon tube containing 2 ml Fetal Bovine Serum (FBS). […]
# A small aliquot of the cell suspension is counted in a hemocytometer. […]
substance,measurement,value
bromo-quercetin,preventing or reducing myocardial damage,effective
